# Target: T1, IRAK4 (Homo sapiens, UniProt Q9NWZ3)
# T1 sequence (Q9NWZ3 1-460): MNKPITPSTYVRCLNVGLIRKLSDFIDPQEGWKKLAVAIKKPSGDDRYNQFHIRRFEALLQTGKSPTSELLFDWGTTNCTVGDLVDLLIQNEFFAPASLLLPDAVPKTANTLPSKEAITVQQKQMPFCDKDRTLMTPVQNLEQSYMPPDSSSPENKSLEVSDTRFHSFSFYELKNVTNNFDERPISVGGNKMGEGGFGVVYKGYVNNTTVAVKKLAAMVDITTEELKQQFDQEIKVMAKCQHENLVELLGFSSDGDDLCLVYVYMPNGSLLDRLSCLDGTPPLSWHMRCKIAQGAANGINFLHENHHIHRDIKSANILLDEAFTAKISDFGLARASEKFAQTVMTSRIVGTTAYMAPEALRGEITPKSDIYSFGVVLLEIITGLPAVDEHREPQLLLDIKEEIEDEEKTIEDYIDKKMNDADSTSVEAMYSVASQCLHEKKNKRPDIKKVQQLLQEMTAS
# Assay: 2-hour 10 μM ATP Biochemical Assay (MesoScale Detection format; IRAK4 phosphorylation of biotin labeled IRAK1 activation loop peptide)
# Conditions: IRAK4 MSD BIOCHEMICAL (10 μM ATP) IC50 (μM), 1 nM IRAK4, 2 hours
# Method in brief: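 Kinase reaction run 2 h at 10 μM ATP with biotinylated IRAK1 activation-loop peptide, quenched with EDTA. Phospho-peptide captured on streptavidin MSD plates and detected with anti-phosphothreonine rabbit antibody plus Sulfo-Tag anti-rabbit electrochemiluminescence.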
row,Structure (SMILES),IC50
1,"CCOc1cc2nc(CC)cn2cc1NC(=O)c1ccc(Cl)cn1 [Example 46, 5-chloro-N-(7-ethoxy-2-ethylimidazo[1,2-a]pyridin-6-yl)picolinamide]",0.083 µM
2,"CCOc1cc2nc(CC)cn2cc1NC(=O)c1ccc2c(c1)NC(=O)C2 [Example 41, N-(7-ethoxy-2-ethylimidazo[1,2-a]pyridin-6-yl)-2-oxoindoline-6-carboxamide]",0.14 µM
3,"CCOc1cc2nc(CC)cn2cc1NC(=O)c1ccc(C)c(C)n1 [Example 34, N-(7-ethoxy-2-ethylimidazo[1,2-a]pyridin-6-yl)-5,6-dimethylpicolinamide]",0.023 µM
4,"O=C(Nc1cn2cc(C3CC3)nc2cn1)c1cccc(C(F)F)n1 [Example 31, N-(2-cyclopropylimidazo[1,2-a]pyrazin-6-yl)-6-(difluoromethyl)picolinamide]",0.089 µM
5,"O=C(Nc1cn2cc(C3CC3)nc2cc1O)c1cccc(C(F)F)n1 [Example 10, N-(2-cyclopropyl-7-hydroxyimidazo[1,2-a]pyridin-6-yl)-6-(difluoromethyl)picolinamide]",0.059 µM
6,"CCOc1cc2nc(CC)cn2cc1NC(=O)c1cccc2c1OCCN2C [Example 39, N-(7-ethoxy-2-ethylimidazo[1,2-a]pyridin-6-yl)-4-methyl-3,4-dihydro-2H-benzo[b][1,4]oxazine-8-carboxamide]",0.016 µM
7,"O=C(Nc1cn2cc(C3CCOCC3)nc2cc1OC1CCC1)c1cccc(C(F)F)n1 [Example 176, N-(7-cyclobutoxy-2-(tetrahydro-2H-pyran-4-yl)imidazo[1,2-a]pyridin-6-yl)-6-(difluoromethyl)picolinamide]",0.001 µM
8,"CCOc1cc2nc(CC)cn2cc1NC(=O)c1cc(C)c(C)cn1 [Example 45, N-(7-ethoxy-2-ethylimidazo[1,2-a]pyridin-6-yl)-4,5-dimethylpicolinamide]",2.3 µM
9,"C[C@@H](COc1cc2nc(C3CC3)cn2cc1NC(=O)c1cccc(C(F)F)n1)n1ccccc1=O (single isomer, unassigned) [Example 8]",0.14 µM
10,"CCOc1cc2nc(CC)cn2cc1NC(=O)c1ccc2c(c1)COCC2 [Example 43, N-(7-ethoxy-2-ethylimidazo[1,2-a]pyridin-6-yl)isochromane-7-carboxamide]",2.6 µM
11,"CC[C@@H]1[C@H](F)C(=O)N[C@@H]1COc1cc2nc(C3CC3)cn2cc1NC(=O)c1cccc(C(F)F)n1 [Example 11, N-(2-cyclopropyl-7-(((2S,3S,4S)-3-ethyl-4-fluoro-5-oxopyrrolidin-2-yl)methoxy)imidazo[1,2-a]pyridin-6-yl)-6-(difluoromethyl)picolinamide]",0.079 µM
12,"O=C(Nc1ccc2nc(C3CC3)cn2c1)c1cccc(C(F)F)n1 [Example 30, N-(2-cyclopropylimidazo[1,2-a]pyridin-6-yl)-6-(difluoromethyl)picolinamide]",0.048 µM
13,"CCOc1cc2nc(CC)cn2cc1NC(=O)c1ccc2c(c1)COC2 [Example 37, N-(7-ethoxy-2-ethylimidazo[1,2-a]pyridin-6-yl)-1,3-dihydroisobenzofuran-5-carboxamide]",1.7 µM
14,"CCOc1cc2nc(CC)cn2cc1NC(=O)c1cc2n(n1)CCC2 [Example 38, N-(7-ethoxy-2-ethylimidazo[1,2-a]pyridin-6-yl)-5,6-dihydro-4H-pyrrolo[1,2-b]pyrazole-2-carboxamide]",2.6 µM
15,"CCOc1cc2nc(CC)cn2cc1NC(=O)c1ccc(F)c(F)c1 [Example 35, N-(7-ethoxy-2-ethylimidazo[1,2-a]pyridin-6-yl)-3,4-difluorobenzamide]",2.5 µM

# Second part, the molecule after the results:
row,IC50,Structure (SMILES)
1,0.004 µM,"COc1cc(NC(=O)c2cccc(C(F)F)n2)cn2cc(C34CC(C#N)(C3)C4)nc12 [Example 511, N-(2-(3-cyanobicyclo[1.1.1]pentan-1-yl)-8-methoxyimidazo[1,2-a]pyridin-6-yl)-6-(difluoromethyl)picolinamide 2,2,2-trifluoroacetate]"
2,0.011 µM,"COc1cc(NC(=O)c2cccc(C(F)F)n2)cn2cc(C34COC(C3)C4)nc12 [Example 544, N-(2-(2-oxabicyclo[2.1.1]hexan-4-yl)-8-methoxyimidazo[1,2-a]pyridin-6-yl)-6-(difluoromethyl)picolinamide 2,2,2-trifluoroacetate]"
3,0.002 µM,"COc1cc(NC(=O)c2cccc(C(F)F)n2)cn2cc(C3CC4CCC(C3)O4)nc12 (stereo not drawn) [Example 509, N-(2-(8-oxabicyclo[3.2.1]octan-3-yl)-8-methoxyimidazo[1,2-a]pyridin-6-yl)-6-(difluoromethyl)picolinamide 2,2,2-trifluoroacetate]"
4,0.011 µM,"Cc1cc(NC(=O)c2cccc(C(F)F)n2)cn2cc(C3CCOCC3)nc12 [Example 410, 6-(difluoromethyl)-N-(8-methyl-2-(tetrahydro-2H-pyran-4-yl)imidazo[1,2-a]pyridin-6-yl)picolinamide 2,2,2-trifluoroacetate]"
5,0.025 µM,"CCOc1cc2nc(C3CCOCC3)cn2cc1NC(=O)c1cccc(C)c1 [Example 229, N-(7-ethoxy-2-(tetrahydro-2H-pyran-4-yl)imidazo[1,2-a]pyridin-6-yl)-3-methylbenzamide]"
6,0.15 µM,"CCOc1cc2nc(C3CC3)cn2cc1NC(=O)c1cccn(CC(F)(F)F)c1=O [Example 70, N-(2-cyclopropyl-7-ethoxyimidazo[1,2-a]pyridin-6-yl)-2-oxo-1-(2,2,2-trifluoroethyl)-1,2-dihydropyridine-3-carboxamide]"
7,0.002 µM,"CCOc1cc2nc(CC3CCOC3)cn2cc1NC(=O)c1coc(-c2cnn(C)c2)n1 (single isomer, unassigned) [Example 251, N-(7-ethoxy-2-((tetrahydrofuran-3-yl)methyl)imidazo[1,2-a]pyridin-6-yl)-2-(1-methyl-1H-pyrazol-4-yl)oxazole-4-carboxamide]"
8,0.016 µM,"COc1cc(NC(=O)c2cccc(C(F)F)n2)cn2cc(C3CC3(F)F)nc12 (single isomer, unassigned) [Example 514, N-(2-(2,2-difluorocyclopropyl)-8-methoxyimidazo[1,2-a]pyridin-6-yl)-6-(difluoromethyl)picolinamide]"
9,0.026 µM,"COc1cc(NC(=O)c2csc(C)n2)cn2cc(C3CCOCC3)nc12 [Example 305, N-(8-methoxy-2-(tetrahydro-2H-pyran-4-yl)imidazo[1,2-a]pyridin-6-yl)-2-methylthiazole-4-carboxamide]"
10,0.035 µM,"CCOc1cc2nc(C3CCOCC3)cn2cc1NC(=O)c1ccnc(OC)n1 [Example 226, N-(7-ethoxy-2-(tetrahydro-2H-pyran-4-yl)imidazo[1,2-a]pyridin-6-yl)-2-methoxypyrimidine-4-carboxamide]"
11,0.14 µM,"CCOc1cc2nc(C3CC3)cn2cc1NC(=O)c1cccc(C(F)(F)F)c1 [Example 54, N-(2-cyclopropyl-7-ethoxyimidazo[1,2-a]pyridin-6-yl)-3-(trifluoromethyl)benzamide]"
12,0.033 µM,"COc1cc2nc(C3CC3)cn2cc1NC(=O)c1cccn(C)c1=O [Example 52, N-(2-cyclopropyl-7-methoxyimidazo[1,2-a]pyridin-6-yl)-1-methyl-2-oxo-1,2-dihydropyridine-3-carboxamide]"
13,0.005 µM,"COc1nc(NC(=O)c2cccc3c2OCC3)cn2cc(C3CCOCC3)nc12 [Example 453, N-(8-methoxy-2-(tetrahydro-2H-pyran-4-yl)imidazo[1,2-a]pyrazin-6-yl)-2,3-dihydrobenzofuran-7-carboxamide]"
14,0.003 µM,"COc1cc(NC(=O)c2cccc(C(F)F)n2)cn2cc(CC3CCOC3)nc12 (stereo not drawn) [Example 411, 6-(difluoromethyl)-N-(8-methoxy-2-((tetrahydrofuran-3-yl)methyl)imidazo[1,2-a]pyridin-6-yl)picolinamide]"
15,0.031 µM,"COc1nc(NC(=O)c2ccn(CC(F)F)n2)cn2cc(C3CCOCC3)nc12 [Example 452, 1-(2,2-difluoroethyl)-N-(8-methoxy-2-(tetrahydro-2H-pyran-4-yl)imidazo[1,2-a]pyrazin-6-yl)-1H-pyrazole-3-carboxamide]"
16,0.037 µM,"COc1cc(NC(=O)c2ccn(C)n2)cn2cc(C3CCOCC3)nc12 [Example 412, N-(8-methoxy-2-(tetrahydro-2H-pyran-4-yl)imidazo[1,2-a]pyridin-6-yl)-1-methyl-1H-pyrazole-3-carboxamide 2,2,2-trifluoroacetate]"
17,0.4 µM,"CC1(COc2cc3nc(C4CCOCC4)cn3cc2NC(=O)c2cnn(C(F)F)c2)COC1 [Example 161, 1-(difluoromethyl)-N-(7-((3-methyloxetan-3-yl)methoxy)-2-(tetrahydro-2H-pyran-4-yl)imidazo[1,2-a]pyridin-6-yl)-1H-pyrazole-4-carboxamide]"
18,2.9 µM,"CCOc1cc2nc(CC3CCOC3)cn2cc1NC(=O)c1nc(C)no1 (stereo not drawn) [Example 158, N-(7-ethoxy-2-((tetrahydrofuran-3-yl)methyl)imidazo[1,2-a]pyridin-6-yl)-3-methyl-1,2,4-oxadiazole-5-carboxamide]"
